The target of data set [1] is T1, Probable nuclear hormone receptor HR3 (Drosophila melanogaster) (UniProt P31396).
T1 sequence (whole entry): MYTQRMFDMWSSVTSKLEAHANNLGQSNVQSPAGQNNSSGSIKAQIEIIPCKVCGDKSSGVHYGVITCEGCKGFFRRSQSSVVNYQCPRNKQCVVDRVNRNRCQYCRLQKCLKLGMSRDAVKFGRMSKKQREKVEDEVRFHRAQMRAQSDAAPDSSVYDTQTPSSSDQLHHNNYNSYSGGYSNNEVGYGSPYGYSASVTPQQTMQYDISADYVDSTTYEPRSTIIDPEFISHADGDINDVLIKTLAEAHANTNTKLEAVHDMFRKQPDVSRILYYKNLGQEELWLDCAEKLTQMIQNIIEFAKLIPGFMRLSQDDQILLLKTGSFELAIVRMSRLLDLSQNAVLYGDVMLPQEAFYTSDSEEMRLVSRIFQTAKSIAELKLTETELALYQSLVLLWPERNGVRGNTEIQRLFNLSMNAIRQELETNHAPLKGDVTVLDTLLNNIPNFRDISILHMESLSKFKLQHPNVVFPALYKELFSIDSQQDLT
Description: Antagonist activity at Drosophila melanogaster transactivation domain of DHR3 expressed in Drosophila Schneider cells co-expressing Gal4-DNA binding domain up to 96 uM. Format: cell-based. The following applies: Schneider 2.

The target in data set [2] is T2, Nuclear receptor ROR-alpha (Homo sapiens) (UniProt P35398).
T2 sequence (whole entry): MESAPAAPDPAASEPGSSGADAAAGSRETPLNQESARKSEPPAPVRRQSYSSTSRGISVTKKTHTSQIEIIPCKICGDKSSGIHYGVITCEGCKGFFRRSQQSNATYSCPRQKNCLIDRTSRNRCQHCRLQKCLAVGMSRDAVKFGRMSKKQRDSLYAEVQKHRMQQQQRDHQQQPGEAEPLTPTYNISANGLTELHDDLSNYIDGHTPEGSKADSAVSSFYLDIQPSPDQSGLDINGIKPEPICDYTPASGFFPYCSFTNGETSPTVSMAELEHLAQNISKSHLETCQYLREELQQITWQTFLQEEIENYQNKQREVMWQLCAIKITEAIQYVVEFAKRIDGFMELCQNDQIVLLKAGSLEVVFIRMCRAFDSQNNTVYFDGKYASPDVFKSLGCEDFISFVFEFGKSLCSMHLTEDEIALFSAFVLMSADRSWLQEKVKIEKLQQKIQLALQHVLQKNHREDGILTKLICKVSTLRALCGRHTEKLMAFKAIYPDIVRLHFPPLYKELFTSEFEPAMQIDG
Description: Antagonist activity at transactivation domain of RORalpha (unknown origin) expressed in Drosophila Schneider cells co-expressing Gal4-DNA binding domain up to 96 uM. Format: cell-based. The following applies: Schneider 2.

Another data set relates to Schneider 2. Nature of the data set: Antagonist activity at HSV transactivation domain of VP16 expressed in Drosophila Schneider cells co-expressing Gal4-DNA binding domain up to 96 uM. The format is cell-based. The following applies: Human alphaherpesvirus 1.
Data set [3] can be described thus: Cytotoxicity against human Th17 cells up to 96 uM. The format is cell-based.
Data set [4] deals with T3, Nuclear receptor ROR-gamma (Homo sapiens, UniProt P51449).
T3 sequence (P51449 whole entry): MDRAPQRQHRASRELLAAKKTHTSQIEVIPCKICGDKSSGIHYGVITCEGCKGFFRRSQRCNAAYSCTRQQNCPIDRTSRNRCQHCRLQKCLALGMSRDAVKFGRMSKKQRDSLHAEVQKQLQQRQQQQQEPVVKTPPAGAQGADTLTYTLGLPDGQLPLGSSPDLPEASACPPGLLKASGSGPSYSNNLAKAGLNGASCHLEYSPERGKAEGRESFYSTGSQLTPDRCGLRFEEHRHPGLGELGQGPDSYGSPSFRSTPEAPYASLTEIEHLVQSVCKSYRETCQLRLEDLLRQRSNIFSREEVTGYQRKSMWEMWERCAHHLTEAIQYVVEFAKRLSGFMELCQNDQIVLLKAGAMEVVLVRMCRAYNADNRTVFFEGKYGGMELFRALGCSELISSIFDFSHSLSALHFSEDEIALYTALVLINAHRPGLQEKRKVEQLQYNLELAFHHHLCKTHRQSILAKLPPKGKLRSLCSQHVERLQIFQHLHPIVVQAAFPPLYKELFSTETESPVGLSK
Nature of the data set: Antagonist activity at transactivation domain of RORgammat (unknown origin) expressed in Drosophila Schneider cells co-expressing Gal4-DNA binding domain. Format: cell-based, Schneider 2.

The source made the active and inactive calls. The calls are words filed in the database; no cut-off is given here.

As to `COc1cc(O)c(C(CC(=O)N2C[C@@H](C)O[C@@H](C)C2)c2ccc3c(c2)OCO3)c(OC)c1` (stereo partly specified), the inhibition entry (in data set [1]; in data set [2]; with Schneider 2) was “inactive” in each case. Besides, the Activity entry in data set [3] is recorded as “Non-toxic”.
For `COc1ccc(C(CC(=O)N2C[C@H](C)C[C@H](C)C2)c2c(O)cc(OC)cc2OC)cc1` (stereo partly specified), the inhibition entry (in data set [1]; in data set [2]; with Schneider 2) was “inactive” each time. In addition, the Activity entry in data set [3] is given as “Non-toxic”.
The IC50 is the point on the concentration scale where inhibition reaches its midpoint. For `COc1cc(O)c(C(CC(=O)N2C[C@@H](C)N[C@@H](C)C2)c2ccc3c(c2)OCO3)c(OC)c1` (stereo partly specified), the inhibition result (in data set [1]; in data set [2]; with Schneider 2) was “inactive” in each case. Moreover, the IC50 result in data set [4] (schneider 2) is “Not Active”. Besides, the Activity entry in data set [3] is on record as “Non-toxic”.
As for `COc1cccc(O)c1C(CC(=O)N1CCCC(C)C1)c1ccc2c(c1)OCO2` (mixture of isomers), the inhibition result (in data set [1]; in data set [2]; in the data set with Schneider 2) was “inactive” each time. Further, the Activity entry in data set [3] was “Non-toxic”.
On to `COc1cc(OC)c(C(CC(=O)N2CCCC(C)C2)c2ccc3c(c2)OCO3)c(OC)c1` (mixture of isomers), for which the inhibition entry (in data set [1]; in data set [2]; in the data set on Schneider 2) was “inactive” throughout. Further, the Activity entry in data set [3] is given as “Non-toxic”.
For `COc1cc(O)c(C(CC(=O)N2C[C@H](C)C[C@H](C)C2)c2ccc(C(F)(F)F)cc2)c(OC)c1` (stereo partly specified), the inhibition result (in data set [1]; in data set [2]; in the data set on Schneider 2) was “inactive” each time. In data set [3], the Activity result is given as “Non-toxic”.
On to `COc1cc(O)c(C(CC(=O)N2CCCCCC2)c2ccc3c(c2)OCO3)c(OC)c1` (stereo unspecified), for which the inhibition entry (in data set [1]; in data set [2]; in the data set with Schneider 2) was “inactive” in each case. Moreover, in data set [3], the Activity result is recorded as “Non-toxic”.
`COc1cc(O)c(C(CC(=O)N2C[C@H](C)C[C@H](C)C2)c2ccc(Cl)cc2)c(OC)c1` (stereo partly specified): the inhibition result (in data set [1]; in data set [2]; in the data set on Schneider 2) was “inactive” throughout. In data set [3], the Activity entry is on record as “Non-toxic”.
Regarding `COc1cc(O)c(C(CC(=O)N2CCOCC2)c2ccc3c(c2)OCO3)c(OC)c1` (stereo unspecified), the inhibition entry (in data set [1]; in data set [2]; in the data set on Schneider 2) was “inactive” each time. In addition, the concentration for half-maximal inhibition (IC50) result in data set [4] (schneider 2) is listed as “Not Active”. Further, the Activity result in data set [3] is recorded as “Non-toxic”.
Turning to `COc1cc(O)c(C(CC(=O)N2CCCC2)c2ccc3c(c2)OCO3)c(OC)c1` (stereo unspecified), the inhibition result (in data set [1]; in data set [2]; with Schneider 2) was “inactive” each time. Also, the IC50 in data set [4] (read-out: IC50) was over 50 µM. In addition, the Activity result in data set [3] was “Non-toxic”.
Regarding `COc1cc(O)c(C(CC(=O)N2CCCC(C)C2)c2ccc3c(c2)OCO3)c(OC)c1` (mixture of isomers), the inhibition entry (in data set [1]; in data set [2]; with Schneider 2) was “inactive” throughout. For the same molecule, in data set [4] (read-out: IC50), the IC50 turned out to be 3.3 µM. Further, in data set [3], the Activity result is given as “Non-toxic”.
For `CCCCNC(=O)CC(c1ccc2c(c1)OCO2)c1c(O)cc(OC)cc1OC` (stereo unspecified), the inhibition result (in data set [1]; in data set [2]; in the data set on Schneider 2) was “inactive” each time. The Activity entry in data set [3] is “Non-toxic”.
With `COc1ccc(C(CC(=O)N2CCCC(C)C2)c2c(O)cc(OC)cc2OC)cc1` (mixture of isomers), the inhibition entry (in data set [1]; in data set [2]; with Schneider 2) was “inactive” throughout. The IC50 in data set [4] (read-out: IC50) was found to be 2.5 µM. In addition, the Activity result in data set [3] is “Non-toxic”.
With `COc1cccc(C(CC(=O)N2C[C@H](C)C[C@H](C)C2)c2c(O)cc(OC)cc2OC)c1` (stereo partly specified), the inhibition result (in data set [1]; in data set [2]; in the data set on Schneider 2) was “inactive” in each case. In addition, the Activity result in data set [3] is given as “Non-toxic”.
For `COc1cc(O)c(C(CC(=O)N2CCCC(C)(C)C2)c2ccc3c(c2)OCO3)c(OC)c1` (stereo unspecified), the inhibition entry (in data set [1]; in data set [2]; in the data set with Schneider 2) was “inactive” throughout. Further, the Activity entry in data set [3] is “Non-toxic”.
In the case of `COc1cc(O)c(C(CC(=O)N2CCCCC2C)c2ccc3c(c2)OCO3)c(OC)c1` (mixture of isomers), the inhibition entry (in data set [1]; in data set [2]; with Schneider 2) was “inactive” each time. Further, in data set [3], the Activity entry is “Non-toxic”.
As to `COc1cc(O)c(C(CC(=O)Nc2ccc(C)cc2)c2ccc3c(c2)OCO3)c(OC)c1` (stereo unspecified), the inhibition entry (in data set [1]; in data set [2]; in the data set with Schneider 2) was “inactive” in each case. The half-inhibitory concentration (IC50) in data set [4] (read-out: IC50) was over 50 µM. In data set [3], the Activity result was “Non-toxic”.
Consider `COc1cc(O)c(C(CC(=O)N2CCCCC2)c2ccc3c(c2)OCO3)c(OC)c1` (stereo unspecified), for which the inhibition entry (in data set [1]; in data set [2]; in the data set on Schneider 2) was “inactive” in each case. For the same molecule, the IC50 in data set [4] (read-out: IC50) is 15.7 µM. The Activity result in data set [3] is “Non-toxic”.
For `COc1cc(O)c(C(CC(=O)N2C[C@H](C)C[C@H](C)C2)c2ccc(C)cc2)c(OC)c1` (stereo partly specified), the inhibition entry (in data set [1]; in data set [2]; in the data set on Schneider 2) was “inactive” in each case. Moreover, the Activity entry in data set [3] is recorded as “Non-toxic”.
Consider `CC1CCCN(C(=O)CC(c2ccc3c(c2)OCO3)c2cc(-c3ccccc3)ccc2O)C1` (mixture of isomers), for which the inhibition result (in data set [1]; in data set [2]; in the data set with Schneider 2) was “inactive” each time. Also, the Activity entry in data set [3] is “Non-toxic”.
Consider `CCN(CC)C(=O)CC(c1ccc2c(c1)OCO2)c1c(O)cc(OC)cc1OC` (stereo unspecified), for which the inhibition entry (in data set [1]; in data set [2]; in the data set on Schneider 2) was “inactive” in each case. The IC50 in data set [4] (read-out: IC50) is over 50 µM. Besides, the Activity result in data set [3] is “Non-toxic”.
As to `C[C@H]1O[C@@H](O[C@H]2[C@@H](O)C[C@H](O[C@H]3[C@@H](O)C[C@H](O[C@H]4CC[C@@]5(C)[C@H](CC[C@@H]6[C@@H]5C[C@@H](O)[C@]5(C)[C@@H](C7=CC(=O)OC7)CC[C@]65O)C4)O[C@@H]3C)O[C@@H]2C)C[C@H](O)[C@@H]1O` [DIGOXIN], the IC50 in data set [4] (read-out: IC50) was 2 µM.
With `COc1cc(O)c(C(CC(=O)N2CCC(C)CC2)c2ccc3c(c2)OCO3)c(OC)c1` (stereo unspecified), the inhibition entry (in data set [1]; in data set [2]; in the data set on Schneider 2) was “inactive” throughout. In addition, the Activity result in data set [3] was “Non-toxic”.
As for `COc1ccc(C(CC(=O)N2CCCC(C)C2)c2ccc3c(c2)OCO3)c(O)c1` (mixture of isomers), the inhibition result (in data set [1]; in data set [2]; with Schneider 2) was “inactive” in each case. For the same molecule, the Activity result in data set [3] was “Non-toxic”.

The values are drawn from ChEMBL document CHEMBL2321802, “Identification of Potent and Selective Diphenylpropanamide RORγ Inhibitors” (ACS Med Chem Lett, 2013).
